The METLIN SMRT retention time set (Domingo-Almenara et al. 2019)

Assay: gradient 5% acetonitrile 3 min, to 50% in 2 min, to 85% in 15 min, held 3 min, 100 µL/min
Conditions: column: Zorbax Extend-C18 2.1 x 50 mm; eluents: water / acetonitrile, 0.1% formic acid
Procedure, shortened: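 Data were gathered over 3 months by HPLC coupled to a quadrupole time-of-flight mass spectrometer, operated in positive and negative ionization mode. Mixtures of ~100 pure standards ran on a Zorbax Extend-C18 column (2.1 × 50 mm, 1.8 μm) at 100 μL/min, with water and acetonitrile each containing 0.1% formic acid and dead and dwell volumes of 40 μL and 900 μL. Retention time was read from adduct peaks picked by computer and checked manually.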

Compound	RP-LC retention time [s]
COc1ccc(F)cc1S(=O)(=O)NCC1(c2cccs2)CC1	933
Cc1ccoc1C(=O)N1CC(F)(F)C[C@H]1c1nc(C2CC2)no1	723
COc1ccc(Cl)cc1NS(=O)(=O)c1ccc2c(c1)CCCC(=O)N2	765
Cc1noc(-c2ccc(NC(=O)C3c4ccccc4Oc4ccccc43)cc2)n1	983
CCC(=O)N1CCc2cc(N3CC(C(=O)NCc4ccc(Cl)cc4)CC3=O)ccc21 (configuration not stated)	637
CC(=O)Nc1ccc(Cc2nc(-c3cccc(-c4ccnn4C)c3)no2)cc1	874
COc1ccccc1N1CCN(c2ncc3c(n2)CCN(Cc2cccc(C)c2)C3)CC1	705
CCS(=O)(=O)Nc1ccc(C2(C(=O)NCc3cccc(F)c3)CCCCC2)cc1	933
CCc1ccc(-c2csc(NC(=O)C3CCCO3)n2)cc1 (configuration not stated)	1020
O=C(NCc1ccc(F)cc1)c1nnc(-c2ccc(S(=O)(=O)N3CCOCC3)cc2)o1	910
CCCNC(=O)C1CCCN(c2nc3ncn(CC(=O)Nc4ccccc4)c(=O)c3s2)C1 (configuration not stated)	683
Cc1cc(C(=O)Nc2c(F)c(F)c(F)c(F)c2F)n(-c2ccccc2)n1	917
CNc1nc(Nc2ccccc2)nc2ccccc12	633
O=C(Nc1nccs1)C1CCN(C(=O)C2CC(=O)N(c3ccc(F)cc3)C2)CC1 (configuration not stated)	672
CN(C)C(CNS(=O)(=O)c1ccc(Cl)cc1)c1ccccc1 (configuration not stated)	652
O=S(=O)(Nc1cccn2c(C3CCC3)nnc12)c1cccc2nsnc12	719
Cc1cc(C)n(Cc2nc(-c3ccc(NC(=O)C(C)(C)C)cc3)oc2C)n1	904
CCn1cc(CCNC(=O)Nc2ccccc2Br)c2cccnc21	774
CS(=O)(=O)N1CCCN(C(=O)C2(c3ccccc3)CC2)c2ccccc21	761
O=C(NC1CCCCC1)N1CCC(c2noc(-c3ccccn3)n2)C1 (configuration not stated)	734
CCCn1cnc2cc(CNC(=O)C3CCCC3)ccc21	590
Cc1ccc(CNC(=O)c2[nH]c(C)c(S(=O)(=O)N3CCCC3)c2C)cc1	851
CCOc1ccc(S(=O)(=O)NCc2c(-c3ccccc3)nc3sc(CC)nn23)cc1	963

Compound	RP-LC retention time [s]
C[C@H](NC(=O)c1cc2ccccc2[nH]1)C(=O)NCCc1c[nH]c2ccccc12	1150
Cc1ccc(S(=O)(=O)N2CCOCC2)cc1[N+](=O)[O-]	751
Cc1cc(C)cc(NC(=O)N(C)Cc2nc3cc(C(=O)N(C)C)ccc3n2C)c1	639
Cn1ncc2c3ccccc3n(CC(=O)N3CCN(C(=O)c4ccco4)CC3)c2c1=O	668
CC(C)c1cc(C(=O)Nc2ccccc2F)no1	1020
O=C1NC(C(=O)N2CCOCC2)Cn2cccc21 (configuration not stated)	568
CCOc1ccc(NC(=O)N2CCC3(CC2)NC(=O)c2ccccc2N3C)cc1	781
CC(CNC(=O)CN1C(=O)CCCc2ccccc21)c1ccccc1 (configuration not stated)	836
COc1ccc2c(c1)C1(CCN(S(=O)(=O)c3ccc(F)cc3)C1)C(=O)N2 (configuration not stated)	820
O=c1c2sccc2n(Cc2nc(-c3ccc(F)cc3)no2)c(=O)n1-c1ccc(Cl)cc1	1070
Cc1sc(NC(=O)c2ccco2)nc1-c1ccc2c(c1)NC(=O)C(C)O2 (configuration not stated)	814
O=S(=O)(c1cccc(-c2nnc(-c3ccccc3Br)o2)c1)N1CCOCC1	940
O=C(Cc1ccccc1Br)N1CCc2cc(-c3ccno3)ccc21	1030
CN(C)C[C@@H]1CN(S(C)(=O)=O)C[C@H]1NC(=O)Cn1c(=O)oc2ccccc21	575
CCN1C(=O)c2cccnc2Sc2cc(NC(=O)c3ccccc3)ccc21	812
Cc1nc(CC(=O)NCc2ccc(C(F)(F)F)cc2)sc1C(=O)NCc1ccccc1	805
CC(C)(C)NC(=O)N1CCC(N2CC3(CCCCC3)C2c2ccncc2)CC1 (configuration not stated)	611
CN(C)c1ccc(/C=C/C(=O)c2cc(Cl)ccc2O)cc1	1120
CCCN(CC1CCOC1)C(=O)Nc1ccc(C)c(F)c1 (configuration not stated)	857
CCc1nc(-c2csc(S(=O)(=O)N3CCC(C(=O)Nc4cc(C)ccn4)CC3)c2)no1	749
CCOc1ccc(CCNC(=O)c2cc3sccc3n2CC)cc1OCC	1050
CCc1cc(C(=O)Nc2ccc(C)cc2C)nc2ccnn12	1090
O=C(CSc1ccc(-n2ccnc2)nn1)N1CCc2ccccc21	578

Compound	RP-LC retention time [s]
Cc1cccc(CNC(=O)C2CCN(S(=O)(=O)c3ccc(-c4cc(C)[nH]n4)o3)CC2)c1	816
Cc1ccc(-n2nnnc2CNC(=O)c2ccc([N+](=O)[O-])o2)cc1C	745
Cc1ccccc1-c1nc2cnccn2c1NCCC(=O)NC1CCCCC1	678
CCCCS(=O)(=O)N1CCCC(c2nnc(C)s2)C1 (configuration not stated)	689
Cc1nc(Nc2ccc(F)cn2)sc1C(=O)N1CCN(c2ncccn2)CC1	719
COc1ccc(N2CCN(c3cc(SCC(=O)Nc4cc(F)ccc4F)ncn3)CC2)cc1	1130
Cc1[nH]ncc1CNC(=O)c1ccc2nc(Cc3ccccc3F)oc2c1	689
Cc1ccc(C)c(NC(=O)N2CCCC2c2nncn2-c2ccccc2)c1 (configuration not stated)	729
CCCOc1ccc(CNC(=O)c2snc(C(=O)NCc3cccc(OC)c3)c2N)cc1	1140
O=C(Cn1cnc2nc(N3CCCC(C(=O)NC4CC4)C3)sc2c1=O)Nc1cc(F)ccc1F (configuration not stated)	693
O=C(Nc1ccccc1F)N1CCN(Cc2nc3cc(Cl)ccc3o2)CC1	737
CCc1ccc(CNC(=O)C2CCN(c3cc(Oc4ccc(CC)cc4)ncn3)CC2)cc1	1120
COC(=O)c1ccc(NC(=O)Cn2cccc(-c3nc(-c4ccc(F)cc4)no3)c2=O)cc1	877
COc1ccc(N2CCN(c3cc(C)nc4nc(-c5ccc(C)cc5)nn34)CC2)cc1	1010
CC(=O)N(Cc1nn(C)c2c1CN(Cc1sccc1C)CC2)c1ccccc1	611
CCn1cc(C(=O)NCc2ccccc2F)c(S(=O)(=O)N2CCSCC2)n1	901
CCOC(=O)c1cccc(NC(=O)C2CCCN(c3ccc(=O)n(-c4ccc(F)cc4)n3)C2)c1 (configuration not stated)	933
O=C(NC1CCN(C(=O)c2cn(-c3cccc(F)c3)nn2)CC1)c1ccc2ccccc2n1	831
CC1CCN(C2=NCCN2C(=O)c2ccccc2Cl)CC1	655
Cc1cc(NCC(O)c2ccc([N+](=O)[O-])cc2)nc(-n2nc(C)cc2C)n1 (configuration not stated)	592
Cc1ccccc1-c1cn(CC(=O)NCc2ccc(F)c(Cl)c2)nc1N1CCOCC1	920
